System: 2-nonenal
Assay: Reduction in skin odor: 2-nonenal in urine of mice fed D2-LA ethyl ester
Format: in vivo
Conditions: BALB/c mice; feed supplemented daily, no more than about 10% of PUFAs ingested; after 4 weeks of dosing; urine collected over 2 days; versus LA ethyl ester cohort
Description: Mice are known to generate skin odor and the causative agent is 2-nonenal. This example explores the contribution of lipid chain auto-oxidation to the generation of such skin odor. Specifically, two cohorts of BALB/c mice are tested. The feed of the first cohort is supplemented daily with D2-LA ethyl ester in an amount such that D2-LA ethyl ester constitutes no more than about 10% of the PUFAs ingested. The feed provided to the other cohort is supplemented with LA ethyl ester in otherwise identical amounts. After 4 weeks of dosing, the urine from each cohort is collected over a 2-day period and then analyzed to assess differences in the amount of 2-nonenal. Alternatively, skin samples can be evaluated for sebum exudates such as by swabs for chemical components.

[2H]C([2H])(/C=C\CCCCC)/C=C\CCCCCCCC(=O)OCC [D2-linoleic acid ethyl ester]
amount of 2-nonenal: significant reduction

From patent publication US20210244637A1, “DEUTERATED POLYUNSATURATED FATTY ACIDS OR ESTERS THEREOF FOR COSMETIC APPLICATIONS” (Retrotope, Inc., priority 2020, published 2021)
